Drawing on the supplement of paper PMC6045584, this text covers surviving fraction for five test systems.

± gives the standard deviation of the averaged measurements.

Compound in one assay: Cc1nc(Nc2ncc(C(=O)Nc3c(C)cccc3Cl)s2)cc(N2CCN(CCO)CC2)n1 [DASATINIB]
Put plainly: surviving fraction relative to DMSO-only wells; higher = less growth inhibition. As to conditions: exposure time: 5 days. Put shortly:
(§1)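 Inhibitors at 0.5, 1, 5, 10, 50, 100, 500 and 1000 nM were applied continuously for five days to tumour cell lines seeded in log phase at 250–500 cells per well in 384-well plates 24 hours earlier. Viability was measured by CellTiter-Glo luminescence and expressed as surviving fraction relative to the median of DMSO-only wells. Luminescence was taken after 10 minutes at room temperature.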

Compound in another assay: O=C(c1cc(Cc2n[nH]c(=O)c3ccccc23)ccc1F)N1CCN(C(=O)C2CC2)CC1 [OLAPARIB]
Described as above. As to conditions: exposure time: 5 days. Put shortly: as §1

Regarding YAMATO SYNOVIAL, the surviving fraction is 0.822 ± 0.18 with DASATINIB (0.5 nM); 0.729 ± 0.097 with DASATINIB (1 nM); 0.836 ± 0.19 in the assay with DASATINIB (5 nM); 0.771 ± 0.2 with DASATINIB (10 nM); 0.848 ± 0.13 with DASATINIB (50 nM); 0.753 ± 0.11 with DASATINIB (100 nM). For the same test system, the surviving fraction in the assay with DASATINIB (500 nM) amounted to 0.63 ± 0.039; with DASATINIB (1000 nM), 0.677 ± 0.074; with OLAPARIB (0.5 nM), 1.38 ± 0.12; in the assay with OLAPARIB (1 nM), 1.4 ± 0.08; with OLAPARIB (5 nM) it was 1.49 ± 0.062; with OLAPARIB (10 nM) it was 1.37 ± 0.11. In addition, the surviving fraction with OLAPARIB (50 nM) came out at 0.894 ± 0.084; with OLAPARIB (100 nM) it was 0.871 ± 0.092; with OLAPARIB (500 nM) it was 0.819 ± 0.02; with OLAPARIB (1000 nM) it was 0.738 ± 0.044.

Take COLO320DM LARGE INTESTINE: the surviving fraction with DASATINIB (0.5 nM) amounted to 1.12 ± 0.096; with DASATINIB (1 nM), 1.01 ± 0.051; with DASATINIB (5 nM), 1.08 ± 0.074; with DASATINIB (10 nM) it was 1.1 ± 0.034; with DASATINIB (50 nM) it was 1.03 ± 0.028; with DASATINIB (100 nM) it was 1.02 ± 0.056. The surviving fraction with DASATINIB (500 nM) is 1.09 ± 0.045; in the assay with DASATINIB (1000 nM), 1.09 ± 0.089; with OLAPARIB (0.5 nM), 1.13 ± 0.19; with OLAPARIB (1 nM), 0.997 ± 0.15; in the assay with OLAPARIB (5 nM), 1.09 ± 0.046; in the assay with OLAPARIB (10 nM), 1.03 ± 0.21. Further, the surviving fraction with OLAPARIB (50 nM) stood at 1.07 ± 0.091; with OLAPARIB (100 nM), 1.03 ± 0.082; in the assay with OLAPARIB (500 nM), 1.06 ± 0.048; with OLAPARIB (1000 nM) it was 0.991 ± 0.03.

Take VP229 BREAST: the surviving fraction with DASATINIB (0.5 nM) is 0.813 ± 0.044; with DASATINIB (1 nM), 0.855 ± 0.081; with DASATINIB (5 nM), 0.708 ± 0.031; with DASATINIB (10 nM), 0.619 ± 0.027; in the assay with DASATINIB (50 nM), 0.467 ± 0.032; with DASATINIB (100 nM), 0.484 ± 0.0085. Moreover, the surviving fraction with DASATINIB (500 nM) came to 0.45 ± 0.031; with DASATINIB (1000 nM) it was 0.484 ± 0.018; in the assay with OLAPARIB (0.5 nM), 1.07 ± 0.11; with OLAPARIB (1 nM), 1.08 ± 0.13; with OLAPARIB (5 nM) it was 1.01 ± 0.021; in the assay with OLAPARIB (10 nM), 1.12 ± 0.19. Further, the surviving fraction was found to be 0.886 ± 0.071 with OLAPARIB (50 nM), 0.788 ± 0.068 with OLAPARIB (100 nM), 0.879 ± 0.12 with OLAPARIB (500 nM) and 0.821 ± 0.046 in the assay with OLAPARIB (1000 nM).

As for U2OS BONE, the surviving fraction worked out at 0.951 ± 0.031 with DASATINIB (0.5 nM); 0.953 ± 0.022 with DASATINIB (1 nM); 0.957 ± 0.059 with DASATINIB (5 nM); 0.865 ± 0.051 with DASATINIB (10 nM); 0.8 ± 0.035 with DASATINIB (50 nM); 0.692 ± 0.021 in the assay with DASATINIB (100 nM). Also, the surviving fraction with DASATINIB (500 nM) is 0.514 ± 0.024; in the assay with DASATINIB (1000 nM), 0.503 ± 0.006; with OLAPARIB (0.5 nM), 1.08 ± 0.045; in the assay with OLAPARIB (1 nM), 1.05 ± 0.069; with OLAPARIB (5 nM), 1.06 ± 0.044; in the assay with OLAPARIB (10 nM), 1.07 ± 0.04. The surviving fraction with OLAPARIB (50 nM) amounted to 1.05 ± 0.055; with OLAPARIB (100 nM), 1.01 ± 0.046; with OLAPARIB (500 nM), 0.945 ± 0.018; in the assay with OLAPARIB (1000 nM), 0.877 ± 0.032.

SCC90 HEADNECK: the surviving fraction is 0.823 ± 0.081 in the assay with DASATINIB (0.5 nM); 0.868 ± 0.037 in the assay with DASATINIB (1 nM); 0.803 ± 0.071 with DASATINIB (5 nM); 0.85 ± 0.18 in the assay with DASATINIB (10 nM); 0.527 ± 0.05 in the assay with DASATINIB (50 nM); 0.542 ± 0.072 with DASATINIB (100 nM). The surviving fraction in the assay with DASATINIB (500 nM) worked out at 0.433 ± 0.095; with DASATINIB (1000 nM), 0.468 ± 0.053; in the assay with OLAPARIB (0.5 nM), 1.07 ± 0.066; with OLAPARIB (1 nM) it was 1.04 ± 0.093; in the assay with OLAPARIB (5 nM), 1.06 ± 0.062; with OLAPARIB (10 nM), 1.1 ± 0.063. The surviving fraction was 0.994 ± 0.037 with OLAPARIB (50 nM), 0.942 ± 0.14 in the assay with OLAPARIB (100 nM), 0.968 ± 0.087 in the assay with OLAPARIB (500 nM) and 0.931 ± 0.091 with OLAPARIB (1000 nM).
